Data as given in patent publication US10654868B2, “Dihydropyrazole azepine compound serving as Akt inhibitor” (HARBIN ZHENBAO PHARMACEUTICAL CO., LTD., priority 2016, dated 2020).

Key:
Akt1 = target: T1, Akt1 (Homo sapiens, UniProt P31749); assay: Akt1 kinase inhibition, LANCE TR-FRET; assay type: biochemical
T1 construct: purchased life technology lot11629928C (lot number only, catalogue number not given)
Procedure: (§1) Study 1: The Inhibitory Effect of the Compounds on the Activity of Akt1, Akt2 and Akt3
Akt1 protein (life technology # lot11629928C)
(§2) In this experiment, a homogeneous time-resolved fluorescence […] energy transfer (LANCE TR-FRET®) method was used. In the assay plate, enzymes, biotinylated polypeptide substrates and compound to be tested were mixed, and ATP was added to initiate the reaction and the mixture was incubated. After that, EDTA was added to terminate the reaction while an Eu-labeled antibody was added to carry out the reaction and the reaction was then detected. The assay plate was analyzed by PE company's Envision, and the analysis mode was TR-FRET. The data were represented by fluorescence signals at 665 nm and 615 nm, respectively.
(§3) Compound formulation: compound to be tested and the reference compound were diluted with 100% DMSO, the initial concentration of the compound was 10 uM, and diluted by 10 times in a 3-fold gradient. Transfer the compound to the cell plate and duplicate each well.
(§4) Kinase assay: the enzyme and substrate were mixed with different concentrations of pre-diluted compounds. […] Leave at room temperature for 15 min and diplicate each concentration. ATP was added, and the final concentrations were 36 uM, 360 uM and 160 uM in Akt1, Akt2, and Akt3 kinase reactions, respectively, and the reaction was carried out for 90 min at room temperature (in which negative and positive controls were set). After the reaction was completed, the antibody was added and the mixture was detected, and the cells were incubated for 60 min at room temperature, and then collected by Evnvision. Data analysis and fitting according to *Lfit5 software.

LNCaP cells = assay: LNCaP cell activity, CellTiter-Glo live cell detection; assay type: cell-based; details: Homo sapiens, 72 h, 1000 cells per well, incubated 3 days, starting concentration 10 uM
Procedure: Study 2: inhibitory effects of compounds on LNCaP cell activity
The amount of ATP directly reflects the number and the state of the cells, and the number of live cells can be detected by quantitatively measuring ATP. The live cell assay kit contains luciferase and its substrate. Through the participation of ATP, luciferase can catalyze the substrate, emit a stable optical signal, and the amount of ATP in the cell was determined by detecting the intensity of the signal. Wherein, the optical signal is proportional to the amount of ATP in the cell, and ATP is positively correlated with the number of live cells, so that the cell proliferation can be detected. The assay board is analyzed by PE company's Envision.
LNCaP cell was separately seeded in a 384-well plate, each well contains 1000 cells. The cell plate was placed in a carbon dioxide incubator and incubated overnight.
A duplicated experiment was performed with 10 concentrations of compound in a 3-fold dilution with Bravo.
Compound was transferred to the cell plate with a starting concentration of 10 uM. The cell plate was incubated in a carbon dioxide incubator for 3 days.
The Promega CellTiter-Glo reagent was added to the cell plate and incubated for 10 min at room temperature to stabilize the optical signal. Read the data by a PerkinElmer Envision multi-label analyzer.

Akt2 = target: T2, Akt2 (Homo sapiens, UniProt P31751); assay: Akt2 kinase inhibition, LANCE TR-FRET; assay type: biochemical; details: Akt2 2 nM, ATP 360 uM, 90 min at room temperature
T2 construct: purchased life technology lot 28870GG (lot number only, catalogue number not given)
T2 sequence (P31751 whole entry): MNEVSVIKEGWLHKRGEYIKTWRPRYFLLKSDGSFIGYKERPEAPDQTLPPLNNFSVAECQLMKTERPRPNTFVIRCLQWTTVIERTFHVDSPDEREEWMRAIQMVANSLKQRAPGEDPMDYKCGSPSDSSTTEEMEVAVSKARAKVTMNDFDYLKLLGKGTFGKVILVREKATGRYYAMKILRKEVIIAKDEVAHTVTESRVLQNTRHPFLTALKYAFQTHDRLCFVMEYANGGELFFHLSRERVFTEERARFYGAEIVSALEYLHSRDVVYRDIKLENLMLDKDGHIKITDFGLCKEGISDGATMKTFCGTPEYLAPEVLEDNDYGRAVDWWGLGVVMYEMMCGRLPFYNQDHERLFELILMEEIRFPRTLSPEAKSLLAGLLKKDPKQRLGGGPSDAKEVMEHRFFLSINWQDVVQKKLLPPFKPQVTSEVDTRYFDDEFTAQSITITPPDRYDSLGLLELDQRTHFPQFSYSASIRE
Procedure: as §1
Akt2 protein (life technology # lot 28870GG)
as §2, §3, §4

Akt3 = target: T3, Akt3 (Homo sapiens, UniProt Q9Y243); assay: Akt3 kinase inhibition, LANCE TR-FRET; assay type: biochemical; details: Akt3 2 nM, ATP 160 uM, 90 min at room temperature
T3 construct: purchased life technology lot 1715050B (lot number only, catalogue number not given)
T3 sequence (Q9Y243 whole entry): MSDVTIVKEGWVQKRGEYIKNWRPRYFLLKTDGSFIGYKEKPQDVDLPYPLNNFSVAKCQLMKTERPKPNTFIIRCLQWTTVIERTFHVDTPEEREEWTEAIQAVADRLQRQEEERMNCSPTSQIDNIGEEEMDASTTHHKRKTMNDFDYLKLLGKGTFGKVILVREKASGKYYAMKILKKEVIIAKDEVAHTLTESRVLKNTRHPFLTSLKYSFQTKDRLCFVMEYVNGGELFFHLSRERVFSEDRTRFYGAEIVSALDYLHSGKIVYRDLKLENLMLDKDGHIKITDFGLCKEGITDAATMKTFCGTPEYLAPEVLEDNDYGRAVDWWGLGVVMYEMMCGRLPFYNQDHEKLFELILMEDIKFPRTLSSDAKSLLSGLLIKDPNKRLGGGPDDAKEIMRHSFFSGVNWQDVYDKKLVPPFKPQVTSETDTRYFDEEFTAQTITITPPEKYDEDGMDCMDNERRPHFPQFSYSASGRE
Procedure: as §1
Akt3 protein (life technology # lot 1715050B)
as §2, §3, §4

T1 sequence (P31749 whole entry): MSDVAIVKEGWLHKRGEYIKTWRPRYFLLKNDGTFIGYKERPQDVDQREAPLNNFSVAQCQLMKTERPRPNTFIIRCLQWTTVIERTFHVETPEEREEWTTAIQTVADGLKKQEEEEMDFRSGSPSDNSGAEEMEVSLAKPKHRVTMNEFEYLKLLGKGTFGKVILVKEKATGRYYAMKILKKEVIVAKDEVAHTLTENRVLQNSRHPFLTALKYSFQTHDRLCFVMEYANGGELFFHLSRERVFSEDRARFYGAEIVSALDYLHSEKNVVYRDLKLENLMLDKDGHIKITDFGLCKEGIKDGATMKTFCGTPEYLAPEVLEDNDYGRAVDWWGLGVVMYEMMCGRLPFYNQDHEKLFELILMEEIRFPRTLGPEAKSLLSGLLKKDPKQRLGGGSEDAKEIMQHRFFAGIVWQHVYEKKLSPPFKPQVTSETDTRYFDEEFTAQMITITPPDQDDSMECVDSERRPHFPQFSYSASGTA

| SMILES | IC50 (Akt1) | IC50 (LNCaP cells) | IC50 (Akt2) | IC50 (Akt3) |
| --- | --- | --- | --- | --- |
| NC[C@H](Cc1cccc(F)c1)NC(=O)c1cc2c(s1)CCCn1ncc(Cl)c1-2 [Embodiment 1] | 0.36 nM | 58 nM | 24 nM | 21 nM |
| NC[C@H](Cc1cccnc1)NC(=O)c1cc2c(s1)CCCn1ncc(Cl)c1-2 [Embodiment 2] | 6.64 nM | 666 nM | 266 nM | 294 nM |
| NC[C@H](Cc1ccncc1)NC(=O)c1cc2c(s1)CCCn1ncc(Cl)c1-2 [Embodiment 3] | 39 nM | 2010 nM | 163 nM | 1130 nM |
| NC[C@H](Cc1cccc(Cl)c1)NC(=O)c1cc2c(s1)CCCn1ncc(Cl)c1-2 [Embodiment 4] | 0.6 nM | 182 nM | 32 nM | 40 nM |
| NC[C@H](Cc1ccc(F)cc1F)NC(=O)c1cc2c(s1)CCCn1ncc(Cl)c1-2 [Embodiment 5] | 2.54 nM | 199 nM | 77 nM | 77 nM |
| NC[C@H](Cc1ccccc1F)NC(=O)c1cc2c(s1)CCCn1ncc(Cl)c1-2 [Embodiment 6] | 3.78 nM | 297 nM | 101 nM | 95 nM |
| NC[C@H](Cc1ccc(F)c(F)c1)NC(=O)c1cc2c(s1)CCCn1ncc(Cl)c1-2 [Embodiment 7] | 0.71 nM | 59 nM | 19 nM | 24 nM |
| NC[C@H](Cc1ccc(Cl)cc1)NC(=O)c1cc2c(s1)CCCn1ncc(Cl)c1-2 [Embodiment 8] | 3.62 nM | 534 nM | 107 nM | 69 nM |
| NC[C@H](Cc1ccc(Cl)c(Cl)c1)NC(=O)c1cc2c(s1)CCCn1ncc(Cl)c1-2 [Embodiment 9] | 1.39 nM | 236 nM | 25 nM | 44 nM |
| NC[C@H](Cc1ccccc1C(F)(F)F)NC(=O)c1cc2c(s1)CCCn1ncc(Cl)c1-2 [Embodiment 10] | 0.63 nM | 159 nM | 17 nM | 29 nM |
| NC[C@H](Cc1cccc(C(F)(F)F)c1)NC(=O)c1cc2c(s1)CCCn1ncc(Cl)c1-2 [Embodiment 11] | 2.28 nM | 287 nM | 66 nM | 80 nM |
| CN(C)C[C@H](Cc1cccc(F)c1)NC(=O)c1cc2c(s1)CCCn1ncc(Cl)c1-2 [Embodiment 12] | 116 nM | 4890 nM | 4830 nM | 867 nM |
| NC[C@@H](NC(=O)c1cc2c(s1)CCCn1ncc(Cl)c1-2)c1ccccc1 [Embodiment 13] | 11 nM | 514 nM | 188 nM | 189 nM |
| NC[C@H](Cc1cccc(F)c1)NC(=O)c1cc2c(s1)CCCn1ncc(Br)c1-2 [Embodiment 14] | 0.33 nM | 36 nM | 11 nM | 34 nM |
| NC[C@H](Cc1ccc(F)c(F)c1F)NC(=O)c1cc2c(s1)CCCn1ncc(Br)c1-2 [Embodiment 15] | 0.67 nM | 85 nM | 20 nM | 16 nM |
| NC[C@H](Cc1cccc(F)c1F)NC(=O)c1cc2c(s1)CCCn1ncc(Br)c1-2 [Embodiment 16] | 0.85 nM | 233 nM | 45 nM | 45 nM |
| NC[C@H](Cc1cc(F)ccc1F)NC(=O)c1cc2c(s1)CCCn1ncc(Br)c1-2 [Embodiment 17] | 0.68 nM | 230 nM | 38 nM | 41 nM |
| NC[C@H](Cc1ccc(F)c(F)c1)NC(=O)c1cc2c(s1)CCCn1ncc(Br)c1-2 [Embodiment 18] | 0.27 nM | 77 nM | 8 nM | 10 nM |
| NC[C@H](Cc1cc(F)cc(F)c1)NC(=O)c1cc2c(s1)CCCn1ncc(Br)c1-2 [Embodiment 19] | 0.03 nM | 23 nM | 8 nM | 8.7 nM |

| SMILES | IC50 (Akt1) | IC50 (LNCaP cells) | IC50 (Akt2) | IC50 (Akt3) |
| --- | --- | --- | --- | --- |
| NC[C@H](Cc1ccccn1)NC(=O)c1cc2c(s1)CCCn1ncc(Br)c1-2 [Embodiment 20] | 11 nM | 487 nM | 428 nM | 374 nM |
| NC[C@H](Cc1ccc(F)c(F)c1)NC(=O)c1cc2c(o1)CCCn1ncc(Cl)c1-2 [Embodiment 21] | 13.3 nM | 615 nM | 312 nM | 98 nM |
| Cc1cnn2c1-c1cc(C(=O)N[C@H](CN)Cc3cccc(F)c3)sc1CCC2 [Embodiment 22] | 2.18 nM | 61 nM | 26 nM | 60 nM |
| NC[C@H](Cc1cccc(F)c1)NC(=O)c1cc2c(s1)CCCn1ncc(-c3ccccc3)c1-2 [Embodiment 23] | 8.84 nM | 1340 nM | 372 nM | 52 nM |
| NC[C@H](Cc1cccc(F)c1)NC(=O)c1cc2c(s1)CCCn1ncc(-c3cccnc3)c1-2 [Embodiment 24] | 67.4 nM | 3560 nM | 1860 nM | 398 nM |
| CCc1cnn2c1-c1cc(C(=O)N[C@H](CN)Cc3cccc(F)c3)sc1CCC2 [Embodiment 25] | 5.22 nM | 389 nM | 143 nM | 83 nM |
| NC[C@H](Cc1cccc(F)c1)NC(=O)c1cc2c(s1)CCCn1ncc(C(F)(F)F)c1-2 [Embodiment 27] | 14.7 nM | 971 nM | 304 nM | 119 nM |
| NC[C@H](Cc1cccc(F)c1)NC(=O)c1cc2c(s1)CCCn1ncc(F)c1-2 [Embodiment 28] | 33.3 nM | 1420 nM | 589 nM | 286 nM |
| NCC(CCc1ccccc1)NC(=O)c1cc2c(s1)CCCn1ncc(Cl)c1-2 (stereo not shown) [Embodiment 29] | 36 nM | 2620 nM | 1100 nM | 783 nM |
| COC1CCn2ncc(Cl)c2-c2cc(C(=O)N[C@H](CN)Cc3cccc(F)c3)sc21 (stereo partly shown) [Embodiment 30] | 12.4 nM | 654 nM | 281 nM | 485 nM |
| NC[C@H](Cc1cccc(F)c1)NC(=O)c1cc2c(s1)C(=O)CCn1ncc(Cl)c1-2 [Embodiment 31] | 124 nM | 5710 nM | 3130 nM | 819 nM |
| NC[C@H](Cc1cccc(F)c1)NC(=O)c1cc2c(s1)C(O)CCn1ncc(Cl)c1-2 (stereo partly shown) [Embodiment 32] | 117 nM | > 10000 nM | 2930 nM | 814 nM |
| NC[C@H](Cc1cccc(F)c1)NC(=O)c1cc2c(s1)C(F)(F)CCn1ncc(Cl)c1-2 [Embodiment 33] | 13 nM | 1750 nM | 490 nM | 108 nM |
| CNC[C@H](Cc1cccc(F)c1)NC(=O)c1cc2c(s1)CCCn1ncc(Cl)c1-2 [Embodiment 34] | 36 nM | 2360 nM | 983 nM | 513 nM |
| Cc1cnn2c1-c1cc(C(=O)N[C@H](CN)Cc3ccc(F)c(F)c3)sc1CCC2 [Embodiment 35] | 0.43 nM | 150 nM | 22 nM | 34 nM |
| NC[C@H](Cc1cccc(F)c1)NC(=O)c1cc2n(n1)CCCn1ncc(Cl)c1-2 [Embodiment 36] | 9.78 nM | 902 nM | 235 nM | 195 nM |
| NC[C@H](Cc1ccc(F)c(F)c1)NC(=O)c1cc2c(s1)OCCn1ncc(Br)c1-2 [Embodiment 37] | 1.73 nM |  | 35 nM | 29 nM |
| NC[C@H](Cc1ccc(F)c(F)c1)NC(=O)c1cc2c(s1)OCCn1ncc(Cl)c1-2 [Embodiment 38] | 0.36 nM | 118 nM | 57 nM | 68 nM |
| Cc1cnn2c1-c1cc(C(=O)N[C@H](CN)Cc3ccc(F)c(F)c3)sc1OCC2 [Embodiment 39] | 1.5 nM | 144 nM | 76 nM | 122 nM |
